We go through 15 molecules from ChEMBL document CHEMBL3120082, “Synthesis and in vitro anti-proliferative effects of 3-(hetero)aryl substituted 3-[(prop-2-ynyloxy)(thiophen-2-yl)methyl]pyridine derivatives on various cancer cell lines” (Bioorg Med Chem Lett, 2014).

Calls of active or inactive are those of the source. The rule behind the calls is not given here.

The nature of data set [1]: Cytotoxicity against human HEK293 cells assessed as cell viability at 10 uM after 24 hrs by MTT assay. It counts as cell-based. The conditions noted are these: read-out: GI.
For the next data set, the system named is HepG2. As to the kind of experiment: Cytotoxicity against human HepG2 cells assessed as cell viability at 10 uM after 24 hrs by MTT assay. It counts as functional. The conditions noted are these: for inhibition of growth at 10 µM: HepG2, 24 h, read-out: GI.
The nature of data set [2]: (§1) Cytotoxicity against human IMR32 cells assessed as cell viability at 10 uM after 24 hrs by MTT assay. It counts as functional. The conditions noted are these: IMR-32, 24 h, read-out: GI. In general terms: Tetrazolium assays rely on reduction of a dye to a coloured formazan, in cell work by metabolically active cells.
For data set [3], the system named is MCF7. As to the kind of experiment: Cytotoxicity against estrogen receptor-positive human MCF7 cells assessed as cell viability at 10 uM after 24 hrs by MTT assay. The conditions noted are these: for inhibition of growth at 10 µM: MCF7, 24 h, read-out: GI. It counts as functional.
The subject of data set [4] is MDA-MB-231. The experiment in a line: Cytotoxicity against estrogen receptor-negative human MDA-MB-231 cells assessed as cell viability at 10 uM after 24 hrs by MTT assay. It counts as functional. The conditions noted are these: for inhibition of growth at 10 µM: MDA-MB-231, 24 h, read-out: GI.
A further data set deals with COLO 205. The experiment in a line: Cytotoxicity against human COLO205 cells assessed as cell viability at 10 uM after 24 hrs by MTT assay. The conditions noted are these: for inhibition of growth at 10 µM: COLO 205, 24 h, read-out: GI. Type of data set: functional.
Another data set has as its system K562. As to the kind of experiment: Cytotoxicity against human K562 cells assessed as cell viability at 10 uM after 24 hrs by MTT assay. It counts as functional. The conditions noted are these: for inhibition of growth at 10 µM: K562, 24 h, read-out: GI.
For data set [5], the system named is MCF7. The experiment in a line: Cytotoxicity against estrogen receptor-positive human MCF7 cells after 24 hrs by MTT assay. Type of data set: functional, cell-based. The conditions noted are these: MCF7, 24 h.
Data set [6] concerns MDA-MB-231. The experiment in a line: Cytotoxicity against estrogen receptor-negative human MDA-MB-231 cells after 24 hrs by MTT assay. Type of data set: functional, cell-based. The conditions noted are these: MDA-MB-231, 24 h.
For a further data set, the system named is IMR-32. The data set is described as §1. Type of data set: functional.

In the case of `CCOC(=O)c1sc2c(c1C#CCOC(c1cccs1)c1cccnc1Cl)CCC2` (stereo not given), in data set [1], the inhibition at 24 h, 10 µM is -1.6%. Moreover, the inhibition of growth at 10 µM in the data set on HepG2 was 21.9%; in data set [2], 25.2%; with MCF7 [3] it was 25%; in the data set on MDA-MB-231 [4], 37.9%; in the data set on COLO 205 it was 46%; in the data set with K562, 65.1%.
Regarding `O=C(O)c1ccccc1C#CCOC(c1cccs1)c1cccnc1Cl` (stereo not given), in data set [1], the inhibition at 24 h, 10 µM amounted to 2.7%. The inhibition of growth at 10 µM in the data set on HepG2 was found to be 33.1%; in data set [2], 38.1%; in the data set on MCF7 [3] it was 35.9%; in the data set on MDA-MB-231 [4], 47.9%; with COLO 205, 34.7%; in the data set on K562, 40.2%.
For `Oc1ccccc1C#CCOC(c1cccs1)c1cccnc1Cl` (stereo not given), the values for the IC50 in the data set with MCF7 [5] and in the data set with MDA-MB-231 [6] (read-out: IC50) were 1510 nM and 1100 nM, respectively. Further, the inhibition at 24 h, 10 µM in data set [1] worked out at 6%. The inhibition of growth at 10 µM in the data set with HepG2 turned out to be 13.6%; in [2], 34.4%; in the data set on MCF7 [3], 67.7%; with MDA-MB-231 [4], 70.8%; with COLO 205 it was 28.5%; in the data set on K562, 40.6%.
For the molecule `O=C(O)c1ccc(C#CCOC(c2cccs2)c2cccnc2Cl)cc1` (stereo not given), the inhibition at 24 h, 10 µM in data set [1] was determined as 4.8%. In addition, the inhibition of growth at 10 µM was 38.2% in the data set on HepG2; 39.6% in [2]; 35.9% in the data set on MCF7 [3]; 38.9% in the data set on MDA-MB-231 [4]; 44% in the data set with COLO 205; 57.7% in the data set on K562.
`CCOC(=O)COC(c1cccs1)c1cccnc1Cl` (stereo not given): the “growth inhibition (GI)” value in the data set with HepG2, in the data set on IMR-32, in the data set with MCF7 [3], in the data set on MDA-MB-231 [4], in the data set on COLO 205 and in the data set on K562 was “inactive” throughout.
As for `CCOC(=O)c1c[nH]nc1C#CCOC(c1cccs1)c1cccnc1Cl` (stereo not given), the inhibition at 24 h, 10 µM in data set [1] amounted to 0.4%. Besides, the inhibition of growth at 10 µM in the data set on HepG2 came out at 34.3%; in data set [2], 30.9%; with MCF7 [3] it was 33.8%; in the data set on MDA-MB-231 [4], 35.3%; in the data set on COLO 205, 45.8%; in the data set on K562 it was 54.8%.
For the molecule `O=C(O)COC(c1cccs1)c1cccnc1Cl` (stereo not given), the “growth inhibition (GI)” value with HepG2, in the data set on IMR-32, with MCF7 [3], in the data set with MDA-MB-231 [4], in the data set with COLO 205 and in the data set with K562 was “inactive” each time.
Turning to `OC(c1cccs1)c1cccnc1Cl` (stereo not given), the “growth inhibition (GI)” value with HepG2, in the data set on IMR-32, in the data set on MCF7 [3], in the data set with MDA-MB-231 [4], with COLO 205 and with K562 was “inactive” in each case.
With `O=C1Nc2ccc(C#CCOC(c3cccs3)c3cccnc3Cl)cc2C1=O` (stereo not given), the values for the IC50 with MCF7 [5] and in the data set on MDA-MB-231 [6] (read-out: IC50) were 1050 nM and 990 nM, respectively. Besides, the inhibition at 24 h, 10 µM in data set [1] is 0.8%. Further, the inhibition of growth at 10 µM in the data set on HepG2 was 44.8%; in data set [2] it was 58.4%; with MCF7 [3], 71.9%; in the data set with MDA-MB-231 [4] it was 72.3%; in the data set on COLO 205 it was 49.3%; in the data set on K562 it was 61.1%.
In the case of `COc1cccc2c1C(=O)c1c(O)c3c(c(O)c1C2=O)C[C@@](O)(C(=O)CO)C[C@@H]3O[C@H]1C[C@H](N)[C@H](O)[C@H](C)O1` [DOXORUBICIN], the figures for the IC50 in the data set on MCF7 [5] and with MDA-MB-231 [6] were 440 nM and 650 nM, respectively.
In the case of `COc1ccc(C#CCOC(c2cccs2)c2cccnc2Cl)cc1` (stereo not given), the figures for the IC50 in the data set with MCF7 [5] and in the data set with MDA-MB-231 [6] (read-out: IC50) were 1720 nM and 1160 nM, respectively. Further, in data set [1], the inhibition at 24 h, 10 µM is -1.1%. In addition, the inhibition of growth at 10 µM was found to be 13.9% with HepG2; 20.7% in data set [2]; 64.7% with MCF7 [3]; 70.1% in the data set on MDA-MB-231 [4]; 31.6% in the data set with COLO 205; 33.8% in the data set with K562.
With `CCOC(=O)c1c(C#CCOC(c2cccs2)c2cccnc2Cl)sc2c1CCCC2` (stereo not given), the inhibition at 24 h, 10 µM in data set [1] was -0.9%. The inhibition of growth at 10 µM in the data set on HepG2 was found to be 29.5%; in data set [2], 22.5%; in the data set with MCF7 [3], 31.8%; in the data set with MDA-MB-231 [4] it was 46.4%; in the data set on COLO 205 it was 32.1%; with K562 it was 53%.
For the molecule `Clc1ncccc1C(OCC#Cc1ccc(I)cc1)c1cccs1` (stereo not given), the inhibition at 24 h, 10 µM in data set [1] amounted to 0%. Also, the inhibition of growth at 10 µM in the data set with HepG2 is 54.2%; in [2], 60%; in the data set with MCF7 [3], 45.6%; with MDA-MB-231 [4] it was 52.2%; in the data set with COLO 205, 39%; in the data set with K562, 48%.
On to `O=[N+]([O-])c1ccccc1C#CCOC(c1cccs1)c1cccnc1Cl` (stereo not given), for which the inhibition at 24 h, 10 µM in data set [1] was found to be 0.1%. Besides, the inhibition of growth at 10 µM with HepG2 stood at 46.2%; in [2], 53.2%; in the data set on MCF7 [3], 34.8%; in the data set on MDA-MB-231 [4], 48%; with COLO 205, 16.5%; in the data set with K562, 18.9%.
Take `Nc1ccccc1C#CCOC(c1cccs1)c1cccnc1Cl` (stereo not given): the IC50 – broadly, the concentration needed to halve the response being measured – with MCF7 [5] amounted to 1290 nM; with MDA-MB-231 [6] (read-out: IC50) it was 950 nM. In addition, in data set [1], the inhibition at 24 h, 10 µM came to 3.2%. In addition, the inhibition of growth at 10 µM came to 36.2% with HepG2; 47.6% in [2]; 69.3% with MCF7 [3]; 73.3% with MDA-MB-231 [4]; 37.8% with COLO 205; 43.8% in the data set with K562.
